# Measurements from ChEMBL document CHEMBL1124398, “Full agonists of CCK8 containing a nonhydrolyzable sulfated tyrosine residue” (J Med Chem, 1989).
# pEC50: −log10 of the molar value. Starred links: 1 amine or outer side, 2 acyl side, 3 side chain; linkers in the order of their positions; H or OH if unused. Non-standard residues stand in square brackets, D forms with d. Residues, ends and D or L forms follow the SMILES beside them. Phe(4-CH2SO3H) = N[C@@H](Cc1ccc(CS(=O)(=O)O)cc1)C(=O)O; X1 = O=C([C@@H](Cc1ccc(CS(=O)(=O)O)cc1)N[*:1])[*:2]; Nle = CCCC[C@H](N)C(=O)O
# Assays:
# [1] = organism: Cavia porcellus; test: The compound was tested for the agonistic activity of amylase secretion by Guinea pig acini; type: functional
# [2] = organism: Cavia porcellus; test: The compound was tested for the agonistic activity of contractile activities of Guinea pig ileum; type: functional
Structure (SMILES),pEC50 [1],pEC50 [2]
CCCC[C@H](NC(=O)[C@H](Cc1ccc(OS(=O)(=O)O)cc1)NC(=O)OC(C)(C)C)C(=O)NCC(=O)N[C@@H](Cc1c[nH]c2ccccc12)C(=O)N[C@@H](CCCC)C(=O)N[C@@H](CC(=O)O)C(=O)N[C@@H](Cc1ccccc1)C(N)=O,9.55,–
CCCC[C@H](NC(=O)[C@H](Cc1c[nH]c2ccccc12)NC(=O)CNC(=O)[C@H](CCCC)NC(=O)[C@@H](Cc1ccc(CS(=O)(=O)O)cc1)NC(C)=O)C(=O)N[C@@H](CC(=O)O)C(=O)N[C@@H](Cc1ccccc1)C(N)=O (Ac-[X1][Nle]GW[Nle]DF-NH2),8.80,7.77
CCCC[C@H](NC(=O)[C@H](Cc1ccc(CS(=O)(=O)O)cc1)NC(C)=O)C(=O)NCC(=O)N[C@@H](Cc1c[nH]c2ccccc12)C(=O)N[C@@H](CCCC)C(=O)N[C@@H](CC(=O)O)C(=O)N[C@@H](Cc1ccccc1)C(N)=O (Ac-[Phe(4-CH2SO3H)][Nle]GW[Nle]DF-NH2),9.48,8.42
CCCC[C@H](NC(=O)[C@H](Cc1c[nH]c2ccccc12)NC(=O)CNC(=O)[C@H](CCCC)NC(=O)[C@@H](Cc1ccc(OS(=O)(=O)O)cc1)NC(=O)OC(C)(C)C)C(=O)N[C@@H](CC(=O)O)C(=O)N[C@@H](Cc1ccccc1)C(N)=O,8.35,7.55
CSCC[C@H](NC(=O)[C@H](Cc1ccc(OS(=O)(=O)O)cc1)NC(=O)[C@@H](N)CC(=O)O)C(=O)NCC(=O)N[C@@H](Cc1c[nH]c2ccccc12)C(=O)N[C@@H](CCSC)C(=O)N[C@@H](CC(=O)O)C(=O)N[C@@H](Cc1ccccc1)C(N)=O [SINCALIDE],10.00,–
